# Target: T1, Human CYP8B1 (Homo sapiens, UniProt Q9UNU6)
# T1 sequence (Q9UNU6 1-501): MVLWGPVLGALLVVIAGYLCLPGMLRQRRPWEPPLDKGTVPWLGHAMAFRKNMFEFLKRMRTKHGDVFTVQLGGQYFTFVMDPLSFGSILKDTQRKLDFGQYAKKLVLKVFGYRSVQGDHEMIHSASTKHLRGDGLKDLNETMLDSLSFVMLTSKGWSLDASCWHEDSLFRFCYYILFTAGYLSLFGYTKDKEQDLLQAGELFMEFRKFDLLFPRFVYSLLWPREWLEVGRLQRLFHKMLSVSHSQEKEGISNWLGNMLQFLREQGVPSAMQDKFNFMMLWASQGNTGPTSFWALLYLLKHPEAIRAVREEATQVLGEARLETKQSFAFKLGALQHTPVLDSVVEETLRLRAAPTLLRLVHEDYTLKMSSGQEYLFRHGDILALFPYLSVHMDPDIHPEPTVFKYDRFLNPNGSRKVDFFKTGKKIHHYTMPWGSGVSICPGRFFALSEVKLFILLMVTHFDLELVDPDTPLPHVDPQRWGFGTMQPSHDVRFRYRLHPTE
# Assay: Human CYP8B1 Liver Microsome Assay
# Conditions: Human CYP8B1 IC50, human liver microsomes; substrate 7a-hydroxy-4-cholesten-3-one, NADPH; RapidFire MS detection of 7α,12α-dihydroxy-4-cholesten-3-one
# Experimental: To a 384 well polypropylene plate (Corning 3656), 250 nl of inhibitor in 100% DMSO (1.25% final DMSO concentration) was pre-plated using an Echo liquid handler (Labcyte Inc.). Human liver microsomes (Xenotech) were diluted in of 0.1 M phosphate buffer, pH 7.4, at a concentration of 65 μg/ml and 15 μL was added to the 384 well plate. The plates were incubated at ambient room temperature for 30 minutes. After pre-incubation with inhibitor, the reaction was initiated by adding 5 μl of substrate solution (4.0 μM 7a-hydroxy-4-cholesten-3-one (Toronto Research Chemicals), 2 mM of NADPH (Sigma), 0.1 M phosphate buffer (pH 7.4). The reaction was carried out for 45 minutes at ambient room temperature and was quenched by the addition of 50 μl of acetonitrile+0.1% vol/vol formic acid (FA)+300 nM 7α-hydroxy-4-cholesten-3-one-d7 (Toronto Research Chemicals). The plates were sealed and centrifuged at 3000 rpm for 5 minutes. Plates were loaded onto the Agilent RapidFire RF300 HTMS system, wherein samples were sipped for 600 ms, and the sip sensor detection signals the diversion of sample from the loop onto a C4 solid phase extraction (SPE) cartridge, where salts are washed off for 2500 ms with a mobile phase of water with 0.1% vol/vol FA at a flow rate of 1.5 ml/min. The column path was switched, and the sample was eluted off the cartridge and flowed into the mass spectrometer for 3000 ms with a mobile phase of acetonitrile and 0.1% vol/vol FA at a flow rate of 1.25 ml/min. The aspirator tip was washed separately with water and acetonitrile between sample aspirations (each for 600 ms) to minimize carryover contamination. Mass spectrometry was carried out using a Sciex API4000 triple quadrupole mass spectrometer (Applied Biosystems, Concord, ON, Canada) equipped with electrospray ionization (ESI) operated in the positive-ion mode. The product 7α,12α-dihydroxy-4-cholesten-3-one and internal standard 7α-hydroxy-4-cholsten-3-one-d7 were detected using multiple reaction monitoring (MRM) with Q1/Q3 transitions at m/z 417.3 to 381.3 and m/z 408.3 to 390.3, respectively, with a dwell time of 100 ms and a collision energy of 24 V for each transition. The mass spectrometer used an ESI voltage of 5000 V and a source temperature of 650° C. Extracted ion chromatograms for each transition were integrated and processed using the RapidFire Integrator software. The data for each well were normalized by monitoring product conversion with the ratio of AUCproduct/(AUCinternal standard). The data was then fitted to a four parameter logistic fit using ActivityBase Software to calculate an IC50 of the inhibitor.
row,Structure (SMILES),IC50 [nM]
1,"C[C@@H]1CN(c2c(C#N)cnc3c(F)cc(C4CC4)cc23)CC[C@@H]1C(=O)N1CCn2c(nnc2C(F)(F)F)C1 [Example 86, 6-cyclopropyl-8-fluoro-4-((3S,4S)-3-methyl-4-(3-(trifluoromethyl)-5,6,7,8-tetrahydro-[1,2,4]triazolo[4,3-a]pyrazine-7-carbonyl)piperidin-1-yl)quinoline-3-carbonitrile]",0.4
2,"C[C@@H]1CN(c2c(C#N)cnc3cc(C(C)(F)F)ccc23)CC[C@@H]1C(=O)N1CCn2c(nnc2C(F)(F)F)C1 [Example 78, 7-(1,1-difluoroethyl)-4-[(3S,4S)-3-methyl-4-{[3-(trifluoromethyl)-5,6-dihydro[1,2,4]triazolo[4,3-a]pyrazin-7(8H)-yl]carbonyl}piperidin-1-yl]quinoline-3-carbonitrile]",1
3,"C[C@@H]1CN(c2c(C#N)cnc3ccc(Cl)cc23)CC[C@@H]1C(=O)N1CCn2c(nnc2C(F)(F)F)C1 (single isomer, unassigned) [Example 116a]",0.4
4,"N#Cc1cnc2ccc(Cl)cc2c1N1CC[C@]2(C(=O)N3CCn4c(nnc4C(F)(F)F)C3)C[C@@H]2C1 (single isomer, unassigned) [Example 81a]",1290
5,CC1CN(c2c(C#N)cnc3c(C(F)F)cc(Cl)cc23)CCC1C(=O)N1CCn2c(nnc2C(F)(F)F)C1 (stereo not shown) [Example 58],4.8
6,"CO[C@H]1CN(c2c(C#N)cnc3ccc(Cl)cc23)CCC1C(=O)N1CCn2c(nnc2C(F)(F)F)C1 (stereo in doubt) [Example 72d, 6-chloro-4-[(3R,4R)-3-methoxy-4-{[3-(trifluoromethyl)-5,6-dihydro[1,2,4]triazolo[4,3-a]pyrazin-7(8H)-yl]carbonyl}piperidin-1-yl]quinoline-3-carbonitrile]",6140
7,"Cc1nc2ccc(C3CC3)cc2c(N2CCC(C(=O)N3CCn4c(nnc4C(F)(F)F)C3)CC2)c1C#N [Example 53, 6-cyclopropyl-2-methyl-4-(4-(3-(trifluoromethyl)-5,6,7,8-tetrahydro-[1,2,4]triazolo[4,3-a]pyrazine-7-carbonyl)piperidin-1-yl)quinoline-3-carbonitrile]",76
8,"CC[C@H]1CN(c2c(C#N)cnc3ccc(Cl)cc23)CC[C@H]1C(=O)N1CCn2c(nnc2C(F)(F)F)C1 [Example 75a, 6-chloro-4-[(3R,4R)-3-ethyl-4-{[3-(trifluoromethyl)-5,6-dihydro[1,2,4]triazolo[4,3-a]pyrazin-7(8H)-yl]carbonyl}piperidin-1-yl]quinoline-3-carbonitrile]",307
9,"COc1ccc2c(N3CC[C@@H](C(=O)N4CCn5c(nnc5C(F)(F)F)C4)[C@@H](C4CC4)C3)c(C#N)cnc2c1F [Example 77a, 4-[(3R,4R)-3-cyclopropyl-4-{[3-(trifluoromethyl)-5,6-dihydro[1,2,4]triazolo[4,3-a]pyrazin-7(8H)-yl]carbonyl}piperidin-1-yl]-8-fluoro-7-methoxyquinoline-3-carbonitrile]",231
10,"CO[C@H]1CN(c2c(C#N)cnc3ccc(Cl)cc23)CC[C@H]1C(=O)N1CCn2c(nnc2C(F)(F)F)C1 [Example 72c, 6-chloro-4-[(3R,4R)-3-methoxy-4-{[3-(trifluoromethyl)-5,6-dihydro[1,2,4]triazolo[4,3-a]pyrazin-7(8H)-yl]carbonyl}piperidin-1-yl]quinoline-3-carbonitrile]",2210
11,"CC[C@@H]1CN(c2c(C#N)cnc3ccc(Cl)cc23)CC[C@@H]1C(=O)N1CCn2c(nnc2C(F)(F)F)C1 [Example 75b, 6-chloro-4-[(3S,4S)-3-ethyl-4-{[3-(trifluoromethyl)-5,6-dihydro[1,2,4]triazolo[4,3-a]pyrazin-7(8H)-yl]carbonyl}piperidin-1-yl]quinoline-3-carbonitrile]",2.8
12,"N#Cc1cnc2cc(OCC3CC3)ccc2c1N1CCC(C(=O)N2CCn3c(nnc3C(F)(F)F)C2)CC1 [Example 68, 7-(cyclopropylmethoxy)-4-(4-{[3-(trifluoromethyl)-5,6-dihydro[1,2,4]triazolo[4,3-a]pyrazin-7(8H)-yl]carbonyl}piperidin-1-yl)quinoline-3-carbonitrile]",0.43
13,"N#Cc1cnc2ccc(Cl)cc2c1N1CCC(C(=O)N2CCc3c(C(F)(F)F)n[nH]c3C2)CC1 [Example 111, 6-chloro-4-(4-{[3-(trfluoromethyl)-1,4,5,7-tetrahydro-6H-pyrazolo[3,4-c]pyridin-6-yl]carbonyl}piperidin-1-yl)quinoline-3-carbonitrile]",90
14,"N#Cc1cnc2ccc(Cl)cc2c1N1CCC(C(=O)N2CCn3cc(C(F)(F)F)nc3C2)CC1 [Example 104, 6-chloro-4-(4-{[2-(trifluoromethyl)-5,6-dihydroimidazo[1,2-a]pyrazin-7(8H)-yl]carbonyl}piperidin-1-yl)quinoline-3-carbonitrile]",863
15,"C[C@@H]1CN(c2c(C#N)cnc3c(F)c(Cl)ccc23)CC[C@@H]1C(=O)N1CCn2c(nnc2C(F)(F)F)C1 [Example 1, 7-chloro-8-fluoro-4-[(3S,4S)-3-methyl-4-{[3-(trifluoromethyl)-5,6-dihydro[1,2,4]triazolo[4,3-a]pyrazin-7(8H)-yl]carbonyl}piperidin-1-yl]quinoline-3-carbonitrile]",0.47
16,"Cc1nc2ccc(Br)cc2c(N2CCC(C(=O)N3CCn4c(nnc4C(F)(F)F)C3)CC2)c1C#N [Example 48, 6-bromo-2-methyl-4-(4-(3-(trifluoromethyl)-5,6,7,8-tetrahydro-[1,2,4]triazolo[4,3-a]pyrazine-7-carbonyl)piperidin-1-yl)quinoline-3-carbonitrile]",109
17,"C[C@@H]1CN(c2c(C#N)cnc3c(F)cccc23)CC[C@@H]1C(=O)N1CCn2c(nnc2C(F)(F)F)C1 [Example 12, 8-fluoro-4-[(3S,4S)-3-methyl-4-{[3-(trifluoromethyl)-5,6-dihydro[1,2,4]triazolo[4,3-a]pyrazin-7(8H)-yl]carbonyl}piperidin-1-yl]quinoline-3-carbonitrile]",1.1
18,"Cc1nc2ccc(F)c(F)c2c(N2CCC(C(=O)N3CCn4c(nnc4C(F)(F)F)C3)CC2)c1C#N [Example 51, 5,6-difluoro-2-methyl-4-(4-(3-(trifluoromethyl)-5,6,7,8-tetrahydro-[1,2,4]triazolo[4,3-a]pyrazine-7-carbonyl)piperidin-1-yl)quinoline-3-carbontrile]",774
19,"C[C@@H]1CN(c2c(C#N)cnc3cc(C(F)(F)F)ccc23)CC[C@@H]1C(=O)N1CCn2c(nnc2C(F)(F)F)C1 [Example 16, 4-[(3S,4S)-3-methyl-4-{[3-(trifluoromethyl)-5,6-dihydro[1,2,4]triazolo[4,3-a]pyrazin-7(8H)-yl]carbonyl}piperidin-1-yl]-7-(trifluoromethyl)quinoline-3-carbonitrile]",0.38
20,"CC1(C)CN(C(=O)C2CCN(c3c(C#N)cnc4ccc(Cl)cc34)CC2)Cc2nnc(C(F)(F)F)n21 [Example 109, 6-chloro-4-(4-{[5,5-dimethyl-3-(trifluoromethyl)-5,6-dihydro[1,2,4]triazolo[4,3-a]pyrazin-7(8H)-yl]carbonyl}piperidin-1-yl)quinoline-3-carbonitrile]",375
21,"CC(C)Oc1ccc2c(N3CC[C@H](C(=O)N4CCn5c(nnc5C(F)(F)F)C4)[C@H](C)C3)c(C#N)cnc2c1 [Example 64, 4-[(3S,4S)-3-methyl-4-{[3-(trifluoromethyl)-5,6-dihydro[1,2,4]triazolo[4,3-a]pyrazin-7(8H)-yl]carbonyl}piperidin-1-yl]-7-(propan-2-yloxy)quinoline-3-carbonitrile]",0.3
22,"CC(C)Oc1ccc2c(N3CC[C@H](C(=O)N4CCn5c(nnc5C(F)(F)F)C4)[C@H](C)C3)c(C#N)cnc2c1F [Example 37, 8-fluoro-4-[(3S,4S)-3-methyl-4-{[3-(trifluoromethyl)-5,6-dihydro[1,2,4]triazolo[4,3-a]pyrazin-7(8H)-yl]carbonyl}piperidin-1-yl]-7-(propan-2-yloxy)quinoline-3-carbonitrile]",0.54
23,"CO[C@@H]1CN(c2c(C#N)cnc3ccc(Cl)cc23)CC[C@H]1C(=O)N1CCn2c(nnc2C(F)(F)F)C1 [Example 72b, 6-chloro-4-[(3S,4R)-3-methoxy-4-{[3-(trifluoromethyl)-5,6-dihydro[1,2,4]triazolo[4,3-a]pyrazin-7(8H)-yl]carbonyl}piperidin-1-yl]quinoline-3-carbonitrile]",441
24,"CC[C@H]1CN(c2c(C#N)cnc3c(F)c(OC)ccc23)CC[C@H]1C(=O)N1CCn2c(nnc2C(F)(F)F)C1 [Example 74a, 4-[(3R,4R)-3-ethyl-4-{[3-(trifluoromethyl)-5,6-dihydro[1,2,4]triazolo[4,3-a]pyrazin-7(8H)-yl]carbonyl}piperidin-1-yl]-8-fluoro-7-methoxyquinoline-3-carbonitrile]",343
25,"CC1CC(C(=O)N2CCn3c(nnc3C(F)(F)F)C2)CCN1c1c(C#N)cnc2ccc(Cl)cc12 (single isomer, unassigned) [Example 73c, 6-chloro-4-[(2R,4S) or (2S,4R)-2-methyl-4-{[3-(trifluoromethyl)-5,6-dihydro[1,2,4]triazolo[4,3-a]pyrazin-7(8H)-yl]carbonyl}piperidin-1-yl]quinoline-3-carbonitrile]",16

# Reference: patent US10414774B2, “Compound useful for altering the levels of bile acids for the treatment of diabetes and cardiometabolc disease” (Merck Sharp & Dohme Corp., priority 2016, dated 2019)
